In general, GI50 refers to the concentration giving 50% growth inhibition.

The record followed here is ChEMBL document CHEMBL1201862, “PubChem BioAssay data set” (2004).

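Step 1: Grow cells in 96-well plates. Step 2: Expose to compound for 48 hours at 5 concentrations. Step 3: Interpolate endpoints linearly; if unreached, use highest concentration. GI50 = concentration required for 50% inhibition of growth.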 Calls of active or inactive are those of the source. Cut-off read from the data, not from the text of the source: active = GI50 up to about 1.1 µM and inactive = higher. Some results are limits rather than exact numbers.

Some test systems named below: KM12; NCI-H23; HCT-15; SK-OV-3; UO-31; SR; SNB-75; T47D; OVCAR-3; Malme-3M; MCF7; COLO 205; CCRF-CEM; ACHN; HCC 2998; IGROV-1; PC-3; RXF 393; MDA-N; HOP-62.
What all share (experiment): DTP human tumour cell line panel, 48 h

Regarding `O=C(O)CCCSc1nc2ccccc2s1`, the GI50 in the test with KM12 is > 100 µM (inactive); in the test with NCI-H23, > 100 µM (inactive); with HCT-15, above 100 µM; in the test with SK-OV-3, > 100 µM (inactive); in the test with UO-31, > 100 µM (inactive); in the test on SR, > 100 µM (inactive). Moreover, the GI50 with SNB-75, with T47D, with OVCAR-3, in the test with Malme-3M, in the test with MCF7 and in the test with COLO 205 was > 100 µM (inactive) throughout. Besides, the GI50 with CCRF-CEM, in the test on ACHN, in the test with HCC 2998, with IGROV-1, with PC-3 and with RXF 393 was > 100 µM (inactive) each time. Moreover, the GI50 in the test on MDA-N and with HOP-62 was > 100 µM (inactive) in each case.
On to `O=C1OC(CN2CCN(c3ccccc3)CC2)CN1C(=S)Nc1ccccc1` (stereo not given), for which the GI50 in the test on KM12 was 88.3 µM (inactive); in the test with NCI-H23, > 100 µM (inactive); in the test with HCT-15, above 100 µM; with SK-OV-3 it was > 100 µM (inactive); in the test with UO-31 it was > 100 µM (inactive); with SR, > 100 µM (inactive). The GI50 with SNB-75 was 65.6 µM (inactive); with T47D, > 100 µM (inactive); with OVCAR-3, > 100 µM (inactive); in the test with Malme-3M, > 100 µM (inactive); in the test with MCF7, > 100 µM (inactive); with COLO 205 it was > 100 µM (inactive). Also, the GI50 is > 100 µM (inactive) in the test with CCRF-CEM; > 100 µM (inactive) in the test on ACHN; > 100 µM (inactive) with HCC 2998; > 100 µM (inactive) in the test on IGROV-1; 84.7 µM (inactive) with PC-3; > 100 µM (inactive) with RXF 393. The GI50 in the test on MDA-N and in the test with HOP-62 was > 100 µM (inactive) each time.
`O=C(Nc1nnc(-c2ccc(Cl)cc2)o1)C(SC(=S)N1CCCCC1)c1ccccc1` (stereo not given): the GI50 was 24.8 µM (inactive) with KM12; 21.9 µM (inactive) in the test with NCI-H23; 7.16 µM with HCT-15; 32.3 µM (inactive) in the test on SK-OV-3; 10.5 µM (inactive) with UO-31; 3.91 µM (inactive) with SR. Also, the GI50 was 39.1 µM (inactive) in the test with SNB-75; 27.2 µM (inactive) in the test with T47D; 19.3 µM (inactive) with OVCAR-3; 3.11 µM (inactive) in the test with Malme-3M; 18.7 µM (inactive) in the test on MCF7; 24.4 µM (inactive) in the test with COLO 205. The GI50 with CCRF-CEM was 4.71 µM (inactive); in the test on ACHN, 15.7 µM (inactive); in the test on HCC 2998, 21.4 µM (inactive); with IGROV-1, 9.38 µM (inactive); in the test with PC-3, 22.4 µM (inactive); in the test on RXF 393, 24.8 µM (inactive). Also, the figures for the GI50 in the test with MDA-N and in the test on HOP-62 were 15.5 µM (inactive) and 25.9 µM (inactive), respectively.
Take `CCOC(=O)C(O)Cc1cnc2ccccc2n1` (stereo not given): the GI50 in the test with KM12 was > 100 µM (inactive); in the test on NCI-H23, > 100 µM (inactive); in the test on HCT-15, above 100 µM; in the test with SK-OV-3, > 100 µM (inactive); with UO-31 it was > 100 µM (inactive); in the test with SR, > 100 µM (inactive). Further, the GI50 with SNB-75 is > 100 µM (inactive); in the test with T47D it was > 100 µM (inactive); in the test on OVCAR-3, > 100 µM (inactive); in the test with Malme-3M, > 100 µM (inactive); in the test on MCF7, 80.7 µM (inactive); in the test on COLO 205, > 100 µM (inactive). Further, the GI50 was 44.9 µM (inactive) in the test on CCRF-CEM; > 100 µM (inactive) with ACHN; > 100 µM (inactive) in the test on HCC 2998; 94.2 µM (inactive) in the test with IGROV-1; > 100 µM (inactive) in the test with PC-3; > 100 µM (inactive) in the test with RXF 393. Besides, the GI50 in the test with MDA-N and in the test with HOP-62 was > 100 µM (inactive) in each case.
